Assay results taken from patent US4610989A, “Analgesic composition containing a mixture of 6-chloro-α-methyl-carbazole-2-acetic acid plus an opiate as the active agent” (priority 1985, dated 1986).
Where “and” joins values, the source holds several entries; their conditions need not be identical. Equal entries are not always repeated. Where two headings read alike, the source gives them in different places.

System: phenylquinone induced writhing
Format: in vivo, male CF-1 mice
Settings: for ED50 (95% Conf. Limits): p.o.; for ED50 (95% Conf. Limits) / Oral ED50 (95% Confidence Limits) / Oral Ed50: given alone; for Oral ED50 (95% Confidence Limits): Table II; for % Inhibition / No. Writhing Episodes: alone
Procedure: The phenylquinone was dissolved in 5% ethyl alcohol and distilled water, gently heated to 37° C. and kept in a brown stoppered bottle to prevent deterioration. The test compounds were administered orally, in rapid succession, in distilled water 15 minutes prior to the phenylquinone.
The means and standard deviations computed during this analysis were then analyzed by "parallel line bioassay" that compared the opiate alkaloid alone in graded doses against, in turn, each combination of a range of opiate alkaloid doses plus a constant dose of carbazole compound. […] The opiate alkaloid dose scale here was always logarithmic.
The sequence of treatments in this study was not random. Rather, the ED50 for opiate alkaloid alone was determined. After this, combination experiments were conducted in which the carbazole racemic 6-chloro-α-methyl-carbazole-2-acetic acid, was administered at a constant dose and the ED50 of opiate alkaloid was redetermined in the presence of racemic 6-chloro-α-methyl-carbazole-2-acetic acid.
Inhibition of phenylquinone induced writhing by oxycodone potentiated by 6-chloro-α-methyl carbazole-2-acetic acid was determined by the procedure described hereinabove with one change. […] This transformation consisted of the [(square root of the number of writhes)+(square root of the number of writhes+1)] and is commonly employed with data that are distributed in a Poisson distribution.
Inhibition of phenylquinone induced writhing by morphine potentiated by 6-chloro-α-methyl-carbazole-2-acetic acid was determined by the procedure described hereinabove with one further change. […] This analysis was carried out on the set of values representing the percent of inhibition of writhing observed at each dose, as defined above, in any given assay.

[1] = Table I, regression analysis and Fieller's Theorem
[2] = Table III, square-root transformed writhes
[3] = Table V, Litchfield and Wilcoxon

CC(C(=O)O)c1ccc2c(c1)[nH]c1ccc(Cl)cc12 (racemic) [Compound A, 6-chloro-α-methyl-carbazole-2-acetic acid]
ED50 (95% Conf. Limits) [1]: 48.8 (25.7-72.0) mg/kg
Oral ED50 (95% Confidence Limits): 48.8 (25.7-72.0)
ED50 (95% Conf. Limits) [2]: 41.9 (33.5-50.0) mg/kg
Oral Ed50 (Table IV): 41.9(33.5-50.0)
ED50 (95% Conf. Limits) [3]: 54(27-108) mg/kg
Oral Ed50 (Table VI): 54(27-108)
% Inhibition (oral dose 25): 17% and 18% and 29%
No. Writhing Episodes (oral dose 25): 91 and 103 and 86
% Inhibition (oral dose 50): 58% and 48% and 51%
No. Writhing Episodes (oral dose 50): 47 and 66 and 59
% Inhibition (oral dose 100): 87% and 73% and 74%
% Inhibition (oral dose 200): 96% and 90% and 91%

COc1ccc2c3c1O[C@H]1[C@@H](O)C=C[C@H]4[C@@H](C2)N(C)CC[C@@]341 [Codeine, codeine]
ED50 (95% Conf. Limits) [1]: 9.2 (6.6-11.9) mg/kg
Oral ED50 (95% Confidence Limits): 9.2 (6.6-11.9)
% Inhibition (oral dose 5): 19%
No. Writhing Episodes (oral dose 5): 92
% Inhibition (oral dose 10): 62%
No. Writhing Episodes (oral dose 10): 43
% Inhibition (oral dose 20): 86%
No. Writhing Episodes (oral dose 20): 16
% Inhibition (oral dose 40): 98%
No. Writhing Episodes (oral dose 40): 2

CN1CC[C@]23c4c5ccc(O)c4O[C@H]2[C@@H](O)C=C[C@H]3[C@H]1C5 [Morphine, morphine]
ED50 (95% Conf. Limits) [3]: 2.5(1-4) mg/kg
Oral Ed50 (Table VI): 2.5(1-4)
% Inhibition (oral dose 1.25): 21%
% Inhibition (oral dose 2.5): 47%
% Inhibition (oral dose 5): 83%
% Inhibition (oral dose 10): 95%

COc1ccc2c3c1O[C@H]1C(=O)CC[C@@]4(O)[C@@H](C2)N(C)CC[C@]314 [Oxycodone, oxycodone]
ED50 (95% Conf. Limits) [2]: 0.25 (0.19-0.32) mg/kg
Oral Ed50 (Table IV): 0.25(0.19-0.32)
% Inhibition (oral dose 0.125): 23%
No. Writhing Episodes (oral dose 0.125): 87
% Inhibition (oral dose 0.25): 43%
No. Writhing Episodes (oral dose 0.25): 64
% Inhibition (oral dose 0.5): 73%
No. Writhing Episodes (oral dose 0.5): 31
% Inhibition (oral dose 1): 88%
No. Writhing Episodes (oral dose 1): 14
% Inhibition (oral dose 2): 96%
No. Writhing Episodes (oral dose 2): 5
